Experimental data reported in ChEMBL document CHEMBL3272235, “alpha-(2-Pyridine)benzyl aryl ketones as potential hypocholesteremic agents” (J Med Chem, 1978).

Tests used:
Rattus norvegicus [1] = assay: Hypocholesteremic activity in Sprague-Dawley rat assessed as change in serum cholesterol level at 25 mg/kg, po administered through intubation tube daily for 7 days measured 24 hrs post last dose relative to vehicle-treated control; assay type: functional
Rattus norvegicus [2] = assay: Estrogenic activity in ovariectomized female Sprague-Dawley rat assessed as change in uterus weight measured as micrograms of […]-estradiol that produce an estrogenic response equivalent to compound at 25 mg/kg, po administered through intubation tube daily for 7 days; assay type: ADME, organism-based; design: dose 25 mg/kg, route oral; settings: in vivo, 168 h

COc1ccc(C(=O)C(c2ccccc2)c2ccccn2)cc1Br (configuration not stated)
Activity (Rattus norvegicus [1]): 11.3%

O=C(c1ccccc1)C(c1ccccc1)c1ccccn1 (configuration not stated)
Activity (Rattus norvegicus [1]): 2.5%

O=C(c1ccccc1Br)C(c1ccccc1)c1ccccn1 (configuration not stated)
Activity (Rattus norvegicus [1]): -54.1%
estradiol equivalent (Rattus norvegicus [2]): 0.87 µg

O=C(c1cccc(Br)c1)C(c1ccccc1)c1ccccn1 (configuration not stated)
Activity (Rattus norvegicus [1]): 6.7%

O=C(c1ccc(Br)cc1)C(c1ccccc1)c1ccccn1 (configuration not stated)
Activity (Rattus norvegicus [1]): -22.8%

O=C(c1ccccc1Cl)C(c1ccccc1)c1ccccn1 (configuration not stated)
Activity (Rattus norvegicus [1]): -56.9%
estradiol equivalent (Rattus norvegicus [2]): 0.8 µg

O=C(c1cccc(Cl)c1)C(c1ccccc1)c1ccccn1 (configuration not stated)
Activity (Rattus norvegicus [1]): 0%

O=C(c1ccc(Cl)cc1)C(c1ccccc1)c1ccccn1 (configuration not stated)
Activity (Rattus norvegicus [1]): -3.5%

O=C(c1ccccc1F)C(c1ccccc1)c1ccccn1 (configuration not stated)
Activity (Rattus norvegicus [1]): -30%
estradiol equivalent (Rattus norvegicus [2]): 0.45 µg

O=C(c1ccc(F)cc1)C(c1ccccc1)c1ccccn1 (configuration not stated)
Activity (Rattus norvegicus [1]): -1.3%

O=C(c1ccccc1I)C(c1ccccc1)c1ccccn1 (configuration not stated)
Activity (Rattus norvegicus [1]): -77.1%
estradiol equivalent (Rattus norvegicus [2]): 0.7 µg

O=C(c1ccc(I)cc1)C(c1ccccc1)c1ccccn1 (configuration not stated)
Activity (Rattus norvegicus [1]): 0%

Cc1ccccc1C(=O)C(c1ccccc1)c1ccccn1 (configuration not stated)
Activity (Rattus norvegicus [1]): -64.9%
estradiol equivalent (Rattus norvegicus [2]): 0.82 µg

Cc1cccc(C(=O)C(c2ccccc2)c2ccccn2)c1 (configuration not stated)
Activity (Rattus norvegicus [1]): 13.2%

Cc1ccc(C(=O)C(c2ccccc2)c2ccccn2)cc1 (configuration not stated)
Activity (Rattus norvegicus [1]): 1.5%

CC(C)(C)c1ccccc1C(=O)C(c1ccccc1)c1ccccn1 (configuration not stated)
Activity (Rattus norvegicus [1]): -42%
estradiol equivalent (Rattus norvegicus [2]): 0.29 µg

CC(C)(C)c1ccc(C(=O)C(c2ccccc2)c2ccccn2)cc1 (configuration not stated)
Activity (Rattus norvegicus [1]): 0%

COc1ccc(C(=O)C(c2ccccc2)c2ccccn2)cc1 (configuration not stated)
Activity (Rattus norvegicus [1]): -15.7%

COc1ccc(C(=O)C(c2ccccc2)c2ccccn2)cc1OC (configuration not stated)
Activity (Rattus norvegicus [1]): 6.3%

O=C(c1ccc2c(c1)OCO2)C(c1ccccc1)c1ccccn1 (configuration not stated)
Activity (Rattus norvegicus [1]): 6.3%

O=C(c1ccccc1Oc1ccccc1)C(c1ccccc1)c1ccccn1 (configuration not stated)
Activity (Rattus norvegicus [1]): -15%

O=C(c1cccc(OCc2ccccc2)c1)C(c1ccccc1)c1ccccn1 (configuration not stated)
Activity (Rattus norvegicus [1]): 12.1%

O=C(c1ccc(OCc2ccccc2)cc1)C(c1ccccc1)c1ccccn1 (configuration not stated)
Activity (Rattus norvegicus [1]): 9.3%

O=C(c1cccnc1)C(c1ccccc1)c1ccccn1 (configuration not stated)
Activity (Rattus norvegicus [1]): -2.1%

O=C(c1ccc2ccccc2c1)C(c1ccccc1)c1ccccn1 (configuration not stated)
Activity (Rattus norvegicus [1]): 0%

O=C(c1cc(-c2ccccc2)nc2cc(Cl)ccc12)C(c1ccccc1)c1ccccn1 (configuration not stated)
Activity (Rattus norvegicus [1]): 3.8%
